What is called IC50 is the midpoint of a concentration-inhibition curve.

Entries after “also recorded” stand apart in the source; their conditions may differ.

These results are taken from article PMC11942905, “Identification of a Selective Inhibitor of Human NFS1, a Cysteine Desulfurase Involved in Fe-S Cluster Assembly, via Structure-Based Virtual Screening” (International Journal of Molecular Sciences, 2025).

For assay [1], the system named is A549 cells. Put plainly: CCK-8 cell viability assay, A549. The following applies: for IC50: Homo sapiens, A549, CCK-8, 72 h. It counts as cell-based, human. The procedure:
(§1) Human bronchial epithelial cells (BEAS-2B) and human lung adenocarcinoma A549 cells were purchased from the Institute of Biochemistry and Cell Biology, Chinese Academy of Sciences (Shanghai, China). BEAS-2B and A549 cells were cultured in DMEM supplemented with 10% (v/v) fetal bovine serum and 1% (v/v) penicillin–streptomycin solution at 37 °C in a humidified atmosphere containing 5% CO2. The half-maximal inhibitory concentration (IC50) values of the selected compounds against BEAS-2B and A549 cells were determined using the CCK-8 assay. Briefly, the cells were seeded into 96-well culture plates at a density of 5 × 10^3 cells per well. After 12 h of culture, fresh medium containing varying concentrations of the selected compounds dissolved in DMSO was added for an additional 72-hour incubation. Subsequently, 10 μL of CCK-8 solution was added to each well, followed by a further 1.5-h incubation at 37 °C. The optical density at 450 nm (OD450) for each well was measured using a microplate reader. Medium containing DMSO alone was used as the control group. Cell viability was calculated as the percentage of the OD450 of the experimental group compared to that of the control group, which was set at 100%.

The test system of assay [2] is A549 cells. Put plainly: Endogenous ROS levels, DCFH-DA fluorescence. In kind it is cell-based, human. The following applies: 48 h, Compound 53 50 µM, Erastin 2.5 µM, 2-AAPA 20 µM. The procedure: Endogenous ROS levels in A549 cells were detected using the fluorescent dye DCFH-DA [48, 49]. A549 cells were cultured in DMEM supplemented with 10% fetal bovine serum at 37 °C in a humidified atmosphere containing 5% CO2. […] Subsequently, the cells were washed three times with prewarmed PBS, and fresh medium containing 10 μM of DCFH-DA was added. After 30 min of incubation, the cells were washed again with prewarmed PBS, fresh medium was added, and the cells were imaged using an inverted fluorescence microscope (Leica, Wetzlar, Germany). Images of live cells were acquired in six different fields. ImageJ software was used to analyze the images.

The test system of assay [3] is A549 cells. Put plainly: Lipid peroxide (LPO) content. The following applies: 48 h, Erastin 2.5 µM, Compound 53 50 µM, 2-AAPA 20 µM, alone or combined. It counts as cell-based, human. Here is the method: A549 cells were seeded in 10 cm dishes at a density of 2 × 10^6 cells per dish and cultured until they reached 40–60% confluence. […] Lipid peroxidation (LPO) levels were measured using a Lipid Peroxide (LPO) Content Assay Kit (Solarbio, China) following the manufacturer’s instructions.

The target of assay [4] is T1, human cystathionine-β-synthase (CBS) (Homo sapiens, UniProt P35520).
T1 construct: made in house; host or cells: E. coli
T1 sequence (P35520 1-551): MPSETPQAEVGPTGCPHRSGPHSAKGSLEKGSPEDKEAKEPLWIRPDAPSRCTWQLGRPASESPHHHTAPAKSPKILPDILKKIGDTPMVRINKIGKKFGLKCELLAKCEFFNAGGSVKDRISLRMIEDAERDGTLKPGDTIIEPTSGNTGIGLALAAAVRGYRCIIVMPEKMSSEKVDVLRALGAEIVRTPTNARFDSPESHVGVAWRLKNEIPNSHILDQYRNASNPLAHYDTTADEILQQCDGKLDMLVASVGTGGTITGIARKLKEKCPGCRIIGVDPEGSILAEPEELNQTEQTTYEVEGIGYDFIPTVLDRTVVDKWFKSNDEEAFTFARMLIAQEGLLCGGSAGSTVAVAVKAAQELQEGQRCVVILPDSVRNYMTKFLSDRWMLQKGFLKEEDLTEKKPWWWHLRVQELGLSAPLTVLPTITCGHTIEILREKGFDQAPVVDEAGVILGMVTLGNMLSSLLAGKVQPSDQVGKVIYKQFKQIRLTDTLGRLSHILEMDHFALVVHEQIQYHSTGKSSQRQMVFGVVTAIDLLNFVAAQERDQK
The assay is described as follows: Selectivity assay, H2S-producing activity of CBS. In kind it is biochemical. Conditions: at 100 µM. Here is the method:
(§2) To evaluate the selectivity of Compounds 53 and 56, their effects on the activities of two other PLP-dependent enzymes, human cystathionine-β-synthase (CBS) and cystathionine-γ-lyase (CSE), were determined using a H2S-producing assay. Human CBS and CSE were expressed and purified in E. coli with a purity exceeding 90%, as confirmed by SDS-PAGE (Figures S4A and S5A). Subsequently, the H2S-producing activities of CBS and CSE were assessed in the presence of different concentrations of Compounds 53 and 56. A widely used CBS inhibitor, AOAA, and a specific CSE inhibitor, PAG, were used as positive controls (Figures S4B and S5B).
(§3) The H2S-producing activity of CBS was measured as previously described. The reaction mixture (200 μL) contained 50 mM of Hepes buffer (pH 7.4), 2 mM of homocysteine, 10 μM of PLP, 0.4 mM of lead nitrate, and 5 μg of CBS protein. It was preincubated at 37 °C for 3 min, and the reaction was initiated by the addition of 2 mM of cysteine. The reaction was monitored in a multifunctional microplate reader at 37 °C for 10 min. An extinction coefficient of 5500 M^−1 cm^−1 at 390 nm was used to calculate the lead sulfide concentration. The method used to determine CSE activity in the H2S-producing assay was identical to the CBS assay, except that 1 mM of cysteine was used as the sole substrate. […]

The target of assay [5] is T2, cystathionine-γ-lyase (CSE) (Homo sapiens, UniProt P32929).
T2 construct: made in house; host or cells: E. coli
T2 sequence (P32929 whole entry): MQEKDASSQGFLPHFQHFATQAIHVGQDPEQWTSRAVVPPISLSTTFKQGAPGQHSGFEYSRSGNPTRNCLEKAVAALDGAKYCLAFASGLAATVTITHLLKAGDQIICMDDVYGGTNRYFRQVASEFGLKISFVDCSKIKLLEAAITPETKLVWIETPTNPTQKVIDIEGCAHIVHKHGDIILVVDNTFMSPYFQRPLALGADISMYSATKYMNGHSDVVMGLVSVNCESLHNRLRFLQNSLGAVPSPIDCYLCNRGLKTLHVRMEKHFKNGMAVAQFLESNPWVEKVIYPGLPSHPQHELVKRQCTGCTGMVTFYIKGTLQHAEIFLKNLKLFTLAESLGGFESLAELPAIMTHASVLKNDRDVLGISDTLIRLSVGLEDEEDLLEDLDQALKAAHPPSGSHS
Put plainly: Selectivity assay, H2S-producing activity of CSE. It counts as biochemical. Conditions: at 100 µM. The procedure: as §2, §3

For assay [6], the system named is BEAS-2B cells. Put plainly: CCK-8 cell viability assay, BEAS-2B. Conditions: Homo sapiens, CCK-8, 72 h. It counts as cell-based. The procedure:
as §1
For orientation: Formazan colour is commonly taken as a measure of viable cells.

Assay [7] deals with T3, human NFS1 (Homo sapiens, UniProt Q9Y697).
T3 construct: His tag (N); made in house; host or cells: E. coli BL21(DE3)
T3 sequence (Q9Y697 56-457): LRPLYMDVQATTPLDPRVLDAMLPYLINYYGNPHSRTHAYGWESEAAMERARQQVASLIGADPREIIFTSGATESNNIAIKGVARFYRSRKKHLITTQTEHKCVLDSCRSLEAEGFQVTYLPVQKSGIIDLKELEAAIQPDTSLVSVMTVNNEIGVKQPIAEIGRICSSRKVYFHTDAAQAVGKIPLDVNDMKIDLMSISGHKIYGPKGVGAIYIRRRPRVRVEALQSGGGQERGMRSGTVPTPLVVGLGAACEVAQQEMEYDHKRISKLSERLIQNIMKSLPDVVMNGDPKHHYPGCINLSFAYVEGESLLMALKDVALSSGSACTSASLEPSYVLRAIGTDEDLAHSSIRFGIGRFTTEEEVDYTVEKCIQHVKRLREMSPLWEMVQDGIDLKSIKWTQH
The assay is described as follows: NFS1 inhibition assay (H2S-producing, methylene blue). It counts as biochemical. Conditions: for inhibition of NFS1: at 100 µM; for IC50: recombinant human NFS1Δ1-55, 1 mM cysteine, n = 4, read-out: IC50, NFS1 activity. The procedure: The 42 candidate compounds were tested for their inhibitory effects on human NFS1 using an in vitro H2S-producing assay. […] Subsequently, the effects of the selected compounds (100 µM) on human NFS1 activity were evaluated.
The activity of NFS1 was determined using a methylene blue assay as described previously, with some modifications. Briefly, reaction mixtures (200 μL) containing 50 mM of Tris-HCl (pH 8.0), 10 μM of PLP, 1 mM of DTT, and 10 μg of NFS1 were preincubated at 37 °C for 3 min. The reaction was then initiated by adding 1 mM of cysteine. After 15 min of incubation at 37 °C, the reaction was quenched by adding 25 μL of 20 mM N,N-dimethyl-p-phenylenediamine in 7.2 M of HCl and 25 μL of 30 mM FeCl3 in 1.2 M of HCl. Subsequently, the reaction mixtures were incubated for another 15 min at 37 °C, followed by centrifugation at 12,000 rpm for 10 minutes to remove the precipitates. The absorbance of the supernatant was measured at 670 nm. A reaction mixture without the substrate cysteine was used as the negative control. The H2S concentration was calculated based on a standard curve prepared using various concentrations of sodium sulfide (Na2S).
For the NFS1 inhibition assays, all test compounds were dissolved in dimethyl sulfoxide (DMSO) to prepare 10 mM stock solutions, which were stored at −80 °C. The stock solutions were diluted to the appropriate concentrations with 50 mM of Tris-HCl (pH 8.0) as required for the experiments. A reaction mixture containing DMSO but no test compounds was used as a negative control. The dose-dependent effects of the inhibitors on NFS1 activity were determined using the methylene blue assay described above. The IC50 values of the inhibitors were calculated by adding different concentrations of the inhibitors to the enzyme reaction mixtures.

Assay [8] deals with T3, human NFS1. Set-up: method as in PMID 36103522. The following applies: cited from earlier work.
Assay [9] relates to cysteine desulfurase activity of Plasmodium falciparum. Set-up: method as in PMID 24709262. Conditions: cited from earlier work.

In assay [1], `CC(=O)NC(CSC(=O)Nc1ccc(NC(=O)SCC(NC(C)=O)C(=O)O)cc1)C(=O)O` (stereo not shown) [Compound 2-AAPA, 2-Acetylamino-3-[4-(2-acetylamino-2-carboxyethylsulfanylcarbonylamino)phenylcarbamoylsulfanyl] propionic acid] came in with an IC50 of around 20 µM. Besides, the “intracellular ROS levels” value in assay [2] is on record as “significantly elevated cellular ROS levels”. Also, in [3], the “intracellular lipid peroxide (LPO) levels” value is “no significant changes”.

In the case of `COc1cc(/C=N/NC(=O)CSc2nnc(SCc3ccccc3)s2)cc(OC)c1O` [Compound 56], the “inhibitory effect on CBS” value in [4] was “no significant inhibitory effects”. Moreover, the “inhibitory effect on CSE” value in assay [5] is recorded as “no significant inhibitory effects”. Also, the IC50 was 27.7 ± 1.99 µM in assay [1] and 78.4 ± 2 µM in [6].

Regarding `CCOc1ccccc1-n1c(C(C)N2CCN(C(=O)COc3ccc(Cl)cc3)CC2)nc2ccccc2c1=O` (stereo not shown) [Erastin], the “effect on cell viability” value in assay [1] (A549 cells, 2.5 µM) is “did not significantly affect cell viability”. In [2], the “intracellular ROS levels” value was “significantly increased intracellular ROS levels; also recorded: significantly elevated cellular ROS levels”. The “intracellular lipid peroxide (LPO) levels” value in assay [3] was “elevated LPO levels”.

Turning to `O=c1cc(-c2ccc(O)c(O)c2)oc2cc(O[C@H]3O[C@H](CO)[C@@H](O)[C@@H](O)[C@@H]3O)cc(O)c12` [Compound 37], in assay [7], the “inhibition of NFS1” value is “approximately 50%” and the IC50 worked out at 141 ± 3.49 µM.

`COCC1(CO)C(=O)C2CCN1CC2` (stereo not shown) [APR-246, eprenetapopt]: the “concentrations required to inhibit NFS1” value in assay [8] is listed as “millimolar concentrations”.

In the case of `N[C@@H]1CON=C1O` [D-cycloserine], the IC50 in assay [9] is around 29 µM.

Take `COc1cc(/C=N\NC(=O)Cc2nnc(NC(=O)c3ccc([N+](=O)[O-])cc3)s2)ccc1O` [Compound 1]: in assay [7], the “inhibition of NFS1” value is “approximately 50%” and the IC50 amounted to 153 ± 3.42 µM.
